From patent US7135466B2 (Kirin Beer Kabushiki Kaisha, priority 1999, dated 2006)
Where two headings read alike, the source gives them in different places.

Biological target: T1, PDGF-Ra (Homo sapiens, UniProt P16234)
T1 construct: host or cells: G-292 human osteosarcoma cells
Assay: Inhibitory activity against PDGF-Ra phosphorylation by PDGF-AA stimulation using G292
Format: cell-based
Details: for IC50: > means inhibition at indicated concentration not more than 50%, < and << not less than 50%, read-out: PDGF (E) IC50; for inhibition at 0.1 µM: G292, at 100 nM, read-out: PDGF (E) inhibition (%) at 100 nM
Procedure, shortened: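 Read-out: A450 from a sandwich ELISA (PY-20 capture, anti-PDGF-Ra detection, peroxidase colour) of lysates from G-292 cells given compound for 1 hr at 37 °C before a 5 min challenge with PDGF-AA at 50 ng/ml.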

[1] = figure within parentheses in >100( )

T1 sequence (P16234 24-1089): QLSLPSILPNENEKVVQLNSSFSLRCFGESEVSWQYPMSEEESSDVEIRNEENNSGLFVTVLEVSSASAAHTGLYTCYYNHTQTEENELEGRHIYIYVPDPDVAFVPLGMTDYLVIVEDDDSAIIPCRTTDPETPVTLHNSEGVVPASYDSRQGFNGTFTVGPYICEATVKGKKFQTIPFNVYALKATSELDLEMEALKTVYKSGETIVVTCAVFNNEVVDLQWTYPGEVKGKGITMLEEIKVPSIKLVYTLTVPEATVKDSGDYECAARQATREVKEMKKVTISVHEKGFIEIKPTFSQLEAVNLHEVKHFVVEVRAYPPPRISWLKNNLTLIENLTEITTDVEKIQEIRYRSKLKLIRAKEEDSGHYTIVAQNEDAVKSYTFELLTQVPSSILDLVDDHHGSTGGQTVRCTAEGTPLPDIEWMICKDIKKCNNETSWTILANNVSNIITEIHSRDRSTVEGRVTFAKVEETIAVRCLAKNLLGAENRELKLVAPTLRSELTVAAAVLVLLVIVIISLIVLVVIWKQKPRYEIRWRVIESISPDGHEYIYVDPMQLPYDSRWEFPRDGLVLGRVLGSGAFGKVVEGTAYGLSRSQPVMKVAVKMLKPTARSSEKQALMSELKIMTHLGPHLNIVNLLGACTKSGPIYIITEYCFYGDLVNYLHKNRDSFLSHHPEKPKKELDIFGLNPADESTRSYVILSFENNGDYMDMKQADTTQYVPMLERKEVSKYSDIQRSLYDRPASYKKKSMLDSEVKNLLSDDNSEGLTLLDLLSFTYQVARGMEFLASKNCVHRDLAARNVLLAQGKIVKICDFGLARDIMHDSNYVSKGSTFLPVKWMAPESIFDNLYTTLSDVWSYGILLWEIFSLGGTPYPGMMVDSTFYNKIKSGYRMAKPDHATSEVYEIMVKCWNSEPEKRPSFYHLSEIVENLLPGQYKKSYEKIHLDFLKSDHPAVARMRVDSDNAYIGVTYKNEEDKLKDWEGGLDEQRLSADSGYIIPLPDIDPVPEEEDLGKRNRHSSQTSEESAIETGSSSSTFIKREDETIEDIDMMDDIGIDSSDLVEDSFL

Row | Compound | IC50 | also measured
1 | COc1cc2ncnc(Oc3ccc(NC(=S)NC(=O)Cc4cccs4)cc3)c2cc1OC [Example 1172, N-{4-[(6,7-Dimethoxy-4-quinazolinyl)oxy]phenyl}-N′-[2-(2-thienyl)acetyl]thiourea] | 34 nM | 
2 | COc1cc2nccc(Oc3ccc(NC(=S)NC(=O)c4ccc(Br)cc4)c(Cl)c3)c2cc1OC [Example 1167, N-(4-Bromobenzoyl)-N′-{2-chloro-4-[(6,7-dimethoxy-4-quinolyl)oxy]phenyl}thiourea] | > 100 nM | 
3 | C#CCC(CC)OC(=O)N(C)c1ccc(Oc2ncnc3cc(OC)c(OC)cc23)cc1 (centres unmarked) [Example 495, 1-Ethyl-3-butynyl N-{4-[(6,7-dimethoxy-4-quinazolinyl)oxy]phenyl}-N-methylcarbamate] | 65 nM | 
4 | COc1cc2nccc(Oc3cc(C)c(NC(=O)OC(C)c4cccc(N(C)C)c4)cc3C)c2cc1OC (centres unmarked) [Example 201, 1-[3-(Dimethylamino)phenyl]ethyl N-{4-[(6,7-dimethoxy-4-quinolyl)oxy]-2,5-dimethylphenyl}-carbamate] |  | IC50 (Pharmacological Test Example 1): > 100 nM
5 | COc1cc2nccc(Oc3ccc(NC(=S)NC(=O)C4CCCO4)cc3Cl)c2cc1OC (centres unmarked) [Example 766, N-{3-Chloro-4-[(6,7-dimethoxy-4-quinolyl)oxy]phenyl}-N′-tetrahydro-2-furanylcarbonylthiourea] | > 100 nM | inhibition at 0.1 µM [1]: 45%
6 | COc1cc2ncnc(Oc3ccc(NC(=S)NC4CCN(Cc5ccccc5)CC4)cc3)c2cc1OC [Example 518, N-{4-[(6,7-Dimethoxy-4-quinazolinyl)oxy]phenyl}-N′-[4-(1-benzylpiperidinyl)]thiourea] | > 100 nM | inhibition at 0.1 µM [1]: 17%
7 | COc1cc2nccc(Oc3ccc(NC(=S)NC(=O)C4(c5ccccc5)CC4)cc3Cl)c2cc1OC [Example 1194, N-{3-Chloro-4-[(6,7-dimethoxy-4-quinolyl)oxy]phenyl}-N′-[(1-phenylcyclopropyl)carbonyl]thiourea] | 56 nM | 
8 | COc1cc2nccc(Oc3ccc(NC(=S)NC(=O)c4ccc(C5CCCCC5)cc4)cc3Cl)c2cc1OC [Example 1127, N-{3-Chloro-4-[(6,7-dimethoxy-4-quinolyl)oxy]phenyl}-N′-(4-cyclohexylbenzoyl)thiourea] | > 100 nM | inhibition at 0.1 µM (figure in parentheses in >100( )): 8%
9 | COc1cc2nccc(Oc3ccc(NC(=O)OC(c4ccccc4)C(C)C)cc3)c2cc1OC (centres unmarked) [Example 195, 2-Methyl-1-phenylpropyl N-{4-[(6,7-dimethoxy-4-quinolyl)oxy]phenyl}carbamate] |  | IC50 (Pharmacological Test Example 1): 66 nM
10 | COc1cc2nccc(Oc3ccc(NC(=O)ON4C(=O)c5ccccc5C4=O)cc3)c2cc1OC [Example 416, 1,3-Dioxo-2,3-dihydro-1H-2-isoindolyl N-{4-[(6,7-dimethoxy-4-quinolyl)oxy]phenyl}carbamate] | > 100 nM | inhibition at 0.1 µM [1]: 49%
11 | COc1cc2ncnc(Oc3ccc(NC(=O)OC(c4ccccc4)C(C)C)cc3)c2cc1OC (centres unmarked) [Example 198, 2-Methyl-1-phenylpropyl N-{4-[(6,7-dimethoxy-4-quinazolinyl)oxy]phenyl}carbamate] |  | IC50 (Pharmacological Test Example 1): 21 nM
12 | COc1cc2ncnc(Oc3ccc(NC(=S)NC(=O)CCCl)cc3)c2cc1OC [Example 1199, N-(3-Chloropropanoyl)-N′-{4-[(6,7-dimethoxy-4-quinazolinyl)oxy]phenyl}thiourea] | 42 nM | 
13 | COc1cc2nccc(Oc3ccc(NC(=O)Oc4ccc(C#N)cc4)c(C)c3C)c2cc1OC [Example 461, 4-Cyanophenyl N-{4-[(6,7-dimethoxy-4-quinolyl)oxy]-2,3-dimethylphenyl}carbamate] | 60 nM | 
14 | COc1cc2nccc(Oc3ccc(NC(=O)OC4CCN(C)CC4)cc3)c2cc1OC [Example 466, 1-Methyl-4-piperidyl N-{4-[(6,7-dimethoxy-4-quinolyl)oxy]phenyl}carbamate] | > 100 nM | inhibition at 0.1 µM [1]: 16%
15 | COc1cc2ncnc(Oc3ccc(NC(=O)OC4CCCN(C)C4)cc3)c2cc1OC (centres unmarked) [Example 465, 1-Methyl-3-piperidyl N-{4-[(6,7-dimethoxy-4-quinazolinyl)oxy]phenyl}carbamate] | 56 nM | 
